# Data reported in paper PMC8624133, “10th Trends in Medical Mycology Held on 8 to 11 October 2021, Aberdeen, Scotland, Organized by the European Confederation of Medical Mycology (ECMM)” (Journal of Fungi, 2021).
# Where two headings read alike, the source gives them in different places.
# Assays:
# C. albicans = format: cell-based, Candida albicans
# [1] = tested on: Rasamsonia argillacea species complex; assay: Antifungal susceptibility testing; format: cell-based; conditions: sputum isolate of a CF patient
# Cryptococcal isolates = assay: CLSI broth micro dilution; format: cell-based, Cryptococcus neoformans, C. gattii
# C. guilliermondii = assay: EUCAST E. Def 7.3.2 microdilution; format: cell-based, Candida guilliermondii; conditions: for MIC50 / MIC90 / GM / MIC Range: n = 62
# C. glabrata [2] = format: cell-based, Candida glabrata
# Other species of Candida = format: cell-based, Candida spp.
# C. parapsilosis [3] = assay: Vitek and EUCAST microdilution susceptibility; format: cell-based, Candida parapsilosis; conditions: Lodderomyces parapsilosis
# [4] = tested on: Exophiala phaeomuriformis; assay: MIC, CLSI M27-A3; format: cell-based; conditions: read-out: MIC values
# In short: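 Isolate recovered from aviation kerosene by 0.22 μm membrane filtration, grown on potato dextrose agar at 30 °C for seven days and identified by ITS sequencing. Susceptibility to clinical antifungals tested per CLSI M27-A3.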
# McLDM strains = assay: EUCAST MIC, S. cerevisiae overexpressing M. circinelloides LDM, resistance phenotypes; format: cell-based, Saccharomyces cerevisiae
# [5] = tested on: biofilm of filamentous fungi; assay: Biofilm XTT-menadione assay; format: cell-based
# Protocol: Materials & Methods: Eight strains are studied: Fusarium solani, Fusarium dimerum, Lomentospora prolificans, Scedosporium apiospermum, Aspergillus flavus, Aspergillus fumigatus and two azole resistant A. fumigatus.
# Biofilms were formed after a 90-min adhesion phase followed by the addition of RPMI medium and after a 48 h at 37 °C. Antifungals at different concentrations were added, either after the adhesion phase or after the 48 h of incubation to study their effect on the formation and on the preformed biofilm. After washing, a mixture of XTT-menadione was added to the wells. After 60 min at 37 °C, the OD (optical density) is measured at 450 and 630 nm. An optical microscope observation allows the visualization of elements of the biofilm.
# [6] = tested on: A. fumigatus clinical isolates; assay: Susceptibility of clinical isolates from CF patients; conditions: all 10 clinical isolates
# C. glabrata [7] = assay: Candidemia Netherlands, MIC distributions against EUCAST ECOFF; format: cell-based, Candida glabrata
# C. parapsilosis [8] = assay: as above; format: cell-based, Candida parapsilosis
# [9] = tested on: nine strains of Candida spp.; assay: CLSI M27-A3 broth microdilution; format: cell-based; conditions: nine strains; for MIC: Candida, read-out: GM MIC
# [10] = tested on: C. auris clinical strains; assay: organism not typed; format: cell-based, Candida auris; conditions: for MIC: range, 78 strains from patients with COVID-19
# Candida isolates = format: cell-based, Candida spp.
# F. verticillioides = assay: Etest susceptibility; format: cell-based, Fusarium verticillioides
# C. parapsilosis [11] = format: cell-based, Candida parapsilosis
# [12] = tested on: Aspergillus spp. isolates; assay: Gradient strip susceptibility (Liofilchem); format: cell-based; conditions: for isolates with in vitro high MIC values: first isolate per species and patient
# Trichosporon isolates = assay: CLSI broth microdilution; format: cell-based, Trichosporon spp.
# C. auris = assay: CLSI M27-A3 broth microdilution; format: cell-based, Candida auris; conditions: for MIC: Candidozyma auris, read-out: GM MIC
# C. tropicalis = format: cell-based, Candida tropicalis
# McLDM-F5-CPR = assay: microbe, parasite or virus in culture; format: cell-based, Saccharomyces cerevisiae AD2Δgal; conditions: Saccharomyces cerevisiae, read-out: mean MIC
# Candida lipolytica = assay: CLSI M44 agar diffusion; format: cell-based
# Candida catenulata = assay: CLSI M44 agar diffusion; format: cell-based
# [13] = tested on: C. auris Isolate B and Isolate C; assay: microbe, parasite or virus in culture; format: cell-based, Candida auris; conditions: for reduction in MIC: Isolate C with ERG11 WT in place of K143R
# [14] = tested on: Parathyridaria percutanea; assay: In vitro antifungal susceptibility; format: cell-based
# McLDM-F1-CPR = assay: microbe, parasite or virus in culture; format: cell-based, Saccharomyces cerevisiae AD2Δgal; conditions: Saccharomyces cerevisiae, read-out: mean MIC
# McLDM-F5 = assay: microbe, parasite or virus in culture; format: cell-based, Saccharomyces cerevisiae AD2Δgal; conditions: Saccharomyces cerevisiae, read-out: mean MIC
# A. niger complex = assay: EUCAST E.Def 9.3.2 susceptibility, CPA isolates; format: cell-based, Aspergillus niger complex; conditions: n = 7, ECOFFs
# A. fumigatus strains = assay: EUCAST E.DEF 9.3.2 broth microdilution; format: cell-based, Aspergillus fumigatus; design: MIC Range: unit not given beside the values; MIC50 / MIC90: unit not given here
# Protocol: Methods: The research was conducted on 29 A. fumigatus strains. Minimum inhibitory concentrations (MIC) were detected by broth microdilution method (BM) following EUCAST definitive document E.DEF 9.3.2 and E-test in accordance with manufacturer instructions.
# [15] = […], discs 25 μg fluconazole, 1 μg voriconazole
compound,measurement,setting,value
C[C@@H]1[C@H](O)[C@@H](C)/C=C/C=C/C=C/C=C/C=C/C=C/C=C/[C@H](O[C@@H]2O[C@H](C)[C@@H](O)[C@H](N)[C@@H]2O)C[C@@H]2O[C@](O)(C[C@@H](O)C[C@@H](O)[C@H](O)CC[C@@H](O)C[C@@H](O)CC(=O)O[C@H]1C)C[C@H](O)[C@H]2C(=O)O [amphotericin B],"I (intermediate) isolates, n (%)",C. albicans,4 (2%)
same,"S (sensitive) isolates, n (%)",C. albicans,196 (97%)
same,minimal inhibitory concentrations (MIC),[1],high minimal inhibitory concentrations
same,MIC50,Cryptococcal isolates,0.25 µg/mL
same,MIC90,Cryptococcal isolates,0.5 µg/mL
same,MIC50,C. guilliermondii; Meyerozyma guilliermondii,0.25 µg/mL
same,MIC90,C. guilliermondii; Meyerozyma guilliermondii,0.25 µg/mL
same,GM,C. guilliermondii,0.177 µg/mL
same,MIC Range,C. guilliermondii,0.06 to 0.5 µg/mL
same,"I (intermediate) isolates, n (%)",C. glabrata [2],2 (2.8%)
same,"S (sensitive) isolates, n (%)",C. glabrata [2],69 (97.2%)
same,"I (intermediate) isolates, n (%)",Other species of Candida,0 (0%)
same,"S (sensitive) isolates, n (%)",Other species of Candida,26 (100%)
same,MIC,C. parapsilosis [3],0.5 µg/mL
same,MIC,[4],2 µg/mL
same,MICs compared to AD2Δ,McLDM strains,not affected
same,number of strains with 100% inhibition of biofilm formation,[5],two
same,susceptibility,[6],susceptible
same,isolates within the wildtype distribution range,C. glabrata [7],98.6%
same,isolates within the wildtype distribution range,C. parapsilosis [8],92.9%
same,MIC,[9],0.13 µg/mL
same,MIC Range,[9],0.03 to 2 µg/mL
same,MIC,[10],0.12 to 2 µg/mL
same,susceptibility,Candida isolates,susceptible
same,"minimum inhibitory concentration (MIC), in words",F. verticillioides,lower values
same,"I (intermediate) isolates, n (%)",C. parapsilosis [11],1 (0.6)
same,"S (sensitive) isolates, n (%)",C. parapsilosis [11],169 (98.3%)
same,isolates with in vitro high MIC values,[12],19.6%
same,MIC,"[12]; gradient strips, ten isolates (5 A. terreus, 3 A. flavus, 1 A. fumigatus, 1 A. nidulans)",> 32 µg/mL
same,MIC,Trichosporon isolates; read-out: GM MIC,0.9 µg/mL
same,MIC Range,C. auris,0.125 to 2 µg/mL
same,MIC,C. auris,0.43 µg/mL
same,"I (intermediate) isolates, n (%)",C. tropicalis,0 (0%)
same,"S (sensitive) isolates, n (%)",C. tropicalis,57 (100%)
OC(Cn1cncn1)(Cn1cncn1)c1ccc(F)cc1F [fluconazole],MIC,McLDM-F5-CPR,128 µg/mL
same,"I (intermediate) isolates, n (%)",C. albicans,0 (0%)
same,"R (resistant) isolates, n (%)",C. albicans,3 (1.5%)
same,"S (sensitive) isolates, n (%)",C. albicans,199 (98.5%)
same,MIC50,Cryptococcal isolates,1 µg/mL
same,MIC90,Cryptococcal isolates,4 µg/mL
same,MIC of non wild-type isolates,C. guilliermondii,64 µg/mL
same,MIC50,C. guilliermondii; Meyerozyma guilliermondii,8 µg/mL
same,MIC90,C. guilliermondii; Meyerozyma guilliermondii,16 µg/mL
same,MIC,"C. guilliermondii; Meyerozyma guilliermondii, read-out: MIC of non wild-type isolates",32 µg/mL
same,GM,C. guilliermondii,7.655 µg/mL
same,MIC Range,C. guilliermondii,0.125 to 64 µg/mL
same,resistant isolates,Candida lipolytica; [15],67%
same,resistant isolates,Candida catenulata; [15],19%
same,"I (intermediate) isolates, n (%)",C. glabrata [2],3 (4.2%)
same,"R (resistant) isolates, n (%)",C. glabrata [2],12 (16.9%)
same,"S (sensitive) isolates, n (%)",C. glabrata [2],56 (78.9%)
same,"I (intermediate) isolates, n (%)",Other species of Candida,0 (0%)
same,"R (resistant) isolates, n (%)",Other species of Candida,0 (0%)
same,"S (sensitive) isolates, n (%)",Other species of Candida,25 (100%)
same,MIC,C. parapsilosis [3],8 µg/mL
same,decrease in MIC,[13],4 fold
same,MIC,"[13]; Candidozyma auris, Isolate B (ERG11 Y132F, TAC1B A583S)",128 µg/mL
same,reduction in MIC,[13],8 fold
same,in vitro susceptibility category,[14],resistance
same,isolates within the wildtype distribution range,C. glabrata [7],83.6%
same,isolates within the wildtype distribution range,C. parapsilosis [8],92.5%
same,MIC,McLDM-F1-CPR,14.7 µg/mL
same,MIC,McLDM-F5,42.7 µg/mL
same,MIC,[9],4.66 µg/mL
same,MIC Range,[9],0.5 to 32 µg/mL
same,Resistance,[10]; CDC tentative breakpoints,100%
same,resistant isolates,Candida isolates,6.4%
same,"minimum inhibitory concentration (MIC), in words",F. verticillioides,high values
same,"I (intermediate) isolates, n (%)",C. parapsilosis [11],0 (0%)
same,"R (resistant) isolates, n (%)",C. parapsilosis [11],2 (1.2%)
same,"S (sensitive) isolates, n (%)",C. parapsilosis [11],171 (98.8%)
same,MIC,Trichosporon isolates; read-out: high MICs,8 µg/mL
same,MIC Range,C. auris,1 to 32 µg/mL
same,MIC,C. auris,5.26 µg/mL
same,"I (intermediate) isolates, n (%)",C. tropicalis,0 (0%)
same,"R (resistant) isolates, n (%)",C. tropicalis,0 (0%)
same,"S (sensitive) isolates, n (%)",C. tropicalis,57 (100%)
CCC(C)n1ncn(-c2ccc(N3CCN(c4ccc(OCC5COC(Cn6cncn6)(c6ccc(Cl)cc6Cl)O5)cc4)CC3)cc2)c1=O (centres unmarked) [itraconazole],Non-wild type isolates,A. niger complex,29%
same,change of MIC,[13],largely unchanged
same,reduction in MIC,[13],unchanged
same,MIC,[4],0.25 µg/mL
same,MICs compared to AD2Δ,McLDM strains,not affected
same,MIC50,A. fumigatus strains; 28 h,0.5
same,MIC90,A. fumigatus strains; 28 h,0.5
same,MIC Range,"A. fumigatus strains; 28 h, 29 strains",0.5–8
same,MIC50,A. fumigatus strains; 48 h,0.5
same,MIC90,A. fumigatus strains; 48 h,1
same,MIC Range,A. fumigatus strains; 48 h,0.5–16
same,susceptibility,[6],susceptible
same,in vitro susceptibility category,[14],resistance
same,MIC,[9],0.11 µg/mL
same,MIC,[10],0.12 to 16 µg/mL
same,"minimum inhibitory concentration (MIC), in words",F. verticillioides,high values
same,MIC Range,C. auris,0.125 to 1 µg/mL
same,MIC,C. auris,0.12 µg/mL
C[C@@H](c1ncncc1F)[C@](O)(Cn1cncn1)c1ccc(F)cc1F [voriconazole],MIC,McLDM-F5-CPR,4 µg/mL
same,"I (intermediate) isolates, n (%)",C. albicans,0 (0%)
same,"R (resistant) isolates, n (%)",C. albicans,S 200 (99%) I 0 (0%) R 2 (1%)
same,"S (sensitive) isolates, n (%)",C. albicans,200 (99%)
same,minimal inhibitory concentrations (MIC),[1],high minimal inhibitory concentrations
same,Non-wild type isolates,A. niger complex,29%
same,resistant isolates,Candida lipolytica,58%
same,resistant isolates,Candida catenulata,19%
same,"I (intermediate) isolates, n (%)",C. glabrata [2],2 (2.8%)
same,"R (resistant) isolates, n (%)",C. glabrata [2],S 62 (87.3%) I 2 (2.8%) R 7 (9.9%)
same,"S (sensitive) isolates, n (%)",C. glabrata [2],62 (87.3%)
same,"I (intermediate) isolates, n (%)",Other species of Candida,0 (0%)
same,"R (resistant) isolates, n (%)",Other species of Candida,S 26 (100%) I 0 (0%) R 0 (0%)
same,"S (sensitive) isolates, n (%)",Other species of Candida,26 (100%)
same,reduction in MIC,[13],2 fold
same,MIC,[4],0.25 µg/mL
same,number of strains with 100% inhibition of biofilm formation,[5],one
same,MIC50,A. fumigatus strains; 28 h,0.5
same,MIC90,A. fumigatus strains; 28 h,1
same,MIC Range,"A. fumigatus strains; 28 h, 29 strains",0.25–4
same,MIC50,A. fumigatus strains; 48 h,1
same,MIC90,A. fumigatus strains; 48 h,2
same,MIC Range,A. fumigatus strains; 48 h,0.25–8
same,susceptibility,[6],susceptible
same,MIC,McLDM-F1-CPR,0.29 µg/mL
same,MIC,McLDM-F5,0.58 µg/mL
same,MIC,[10],0.06 to 8 µg/mL
same,"minimum inhibitory concentration (MIC), in words",F. verticillioides,lower values
same,"I (intermediate) isolates, n (%)",C. parapsilosis [11],1 (0.6%)
same,"R (resistant) isolates, n (%)",C. parapsilosis [11],S 170 (98.8%) I 1 (0.6%) R 1 (0.6%)
same,"S (sensitive) isolates, n (%)",C. parapsilosis [11],170 (98.8%)
same,isolates with in vitro high MIC values,[12],1.9%
same,MIC,Trichosporon isolates; read-out: GM MIC,0.075 µg/mL
same,"I (intermediate) isolates, n (%)",C. tropicalis,0 (0%)
same,"R (resistant) isolates, n (%)",C. tropicalis,S 57 (100%) I 0 (0%) R 0 (0%)
same,"S (sensitive) isolates, n (%)",C. tropicalis,57 (100%)
